The data set in a line: method code TLC index, from DOI: 10.1016/0223-5234(96)88245-6. The settings on record: pH 7.4.

Molecule `COC(=O)C1=C(C)NC(C)=C(C(=O)OC)C1c1cc(F)cc(F)c1` displayed a logD of 1.15.
Take `CCOC(=O)C1=C(C)NC(C)=C(C(=O)OC)C1c1cc(F)cc(F)c1` (stereo not drawn): the logD turned out to be 1.46.
Turning to `CCOC(=O)C1=C(C)NC(C)=C(C(=O)OCC)C1c1cc(F)cc(F)c1`, the logD was 2.09.
`COC(=O)C1=C(C)NC(C)=C(C(=O)OC)C1c1ccc(F)c(Br)c1` yielded a logD of 1.48.
Consider `CCOC(=O)C1=C(C)NC(C)=C(C(=O)OCC)C1c1ccc(F)cc1`, for which the logD was 1.66.
In the case of `COC(=O)C1=C(C)NC(C)=C(C(=O)OC)C1c1ccc(F)cc1` it was 0.82; in that of `COC(=O)C1=C(C)NC(C)=C(C(=O)OCCOc2ccccc2)C1c1cc(F)cc(F)c1` (stereo not drawn), 3.08.
In the case of `CCOC(=O)C1=C(C)NC(C)=C(C(=O)OCC)C1c1cccc([N+](=O)[O-])c1` it was 1.6.

Usually logD stands for the decadic logarithm of the distribution of all forms, ionised or not, between an organic phase and buffer at a given pH. Read a high logD as a more lipophilic compound.

Source of the values: the SangsterLogP compilation.
